In patent US8927576B2, “HCV inhibitor and therapeutic agent combinations” (PTC Therpeutics, Inc., priority 2009, dated 2015):

Test system: HCV replicon (replicon cells)
Test: Replicon response to antiviral agent(s): luciferase replicon inhibition, combination of HCV inhibitor and therapeutic agent
Assay type: cell-based
Conditions: in combination with Cpd 661; range over the combination ratios (Cpd 661:agent) tested; replicon cells treated three days; luciferase (Bright Glo)
Protocol: Replicon cells were seeded at 5000 cells/well in 96-well plates and were treated with a HCV inhibitor and/or a HCV therapeutic agent for three days. The growth medium consisted of a final concentration of 0.5% DMSO and 10% fetal bovine serum.
The HCV therapeutic agents, an interferon-α, a NS5b HCV polymerase inhibitor Compound 1p and a NS3/NS4a HCV protease inhibitor Compound 2p in the compound treatment samples were each serially diluted to the concentration ratios indicated in Table 1. Replicon cells in the untreated control were not treated with a HCV inhibitor or therapeutic agent. To each concentration of therapeutic agent, the HCV inhibitor Compound 661 was titrated. After three days, Bright Glo agent was used to detect luciferase activity. The activity of the medium without cells was measured as the background control. Replicon inhibition was calculated using the following formula: […]

| Compound | Combination Index IC50 | Combination Index IC75 | Combination Index IC90 |
| --- | --- | --- | --- |
| C=C[C@H]1C[C@@]1(NC(=O)[C@@H]1C[C@@H](Oc2cc(-c3ccccc3)nc3cc(OC)ccc23)CN1C(=O)[C@@H](NC(=O)OC(C)(C)C)C(C)(C)C)C(=O)NS(=O)(=O)C1CC1 [Cpd 2p, N-(tert-butoxycarbonyl)-3-methyl-L-valyl-(4R)-N-{(1S,2R)-1-[(cyclopropylsulfonyl)carbamoyl]-2-ethenylcyclopropyl}-4-[(7-methoxy-2-phenylquinolin-4-yl)oxy]-L-prolinamide] | 0.26-0.91 | 0.27-0.66 | 0.29-0.48 |
| CC(C)CCn1c(=O)c(C2=Nc3ccccc3S(=O)(=O)N2)c(O)c2ccccc21 [Cpd 1p, 3-(1,1-dioxido-2H-1,2,4-benzothiadiazin-3-yl)-4-hydroxy-1-(3-methylbutyl)quinolin-2(1H)-one] | 0.19-0.94 | 0.13-0.61 | 0.09-0.4 |
| interferon-α | 0.36-0.84 | 0.42-0.78 | 0.35-0.72 |
